In data set [1] the test system is HL-60/MX2 multidrug resistant. Description: Cell growth inhibition assay, resazurin (Example 11). The data set is classed as cell-based, human. As for the experimental part: Human uterine sarcoma (MES-SA; CRL-1976), its multidrug resistant derivative (MES-SA/Dx5; CRL-1977), human acute promyelocytic leukemia cells (HL-60; CCL-240) and its multidrug resistant derivative (HL-60/MX2; CRL-2257) were purchased from ATCC and maintained in appropriate culture media. The cells were cultured in an incubator at 37° C. in 5% CO2 and 95% humidified air.
For cell growth inhibition assays, MES-SA and MES-SA/Dx5 cells were both seeded at 3×10^3 cells/well in 90 μl complete media into 96 well (Corning; 3904) black-walled, clear-bottom tissue culture plates and the plates were incubated overnight to allow cells to establish and enter log phase growth. HL-60 and HL-60/MX2 cells were both seeded at 5×10^4 cells/well in 90 μl complete media into 96 well plates on the day of compound addition. 20 mM stock solutions of the compounds were prepared in 100% DMSO and stored at −80° C. […] Ten μl volumes of the 10× serial dilutions were added to the test wells in triplicate and the plates returned to the incubator for 48 hours. The final concentration of DMSO was 0.25% in all samples.
Following 48 hours of drug exposure, 10 μl of 0.2 mg/ml resazurin (obtained from Sigma-Aldrich Chemical Co.) in Mg^2+, Ca^2+ free phosphate buffered saline was added to each well and the plates were returned to the incubator for 3-6 hours. […] Resazurin dye in medium without cells was used to determine the background, which was subtracted from the data for all experimental wells.
HL-60/MX2 is a multidrug resistant tumor cell line derived from the human promyelocytic leukemia cell line, HL-60 and expresses reduced topoisomerase II activity. The data presented in Table 20 summarize the growth inhibitory effects of NPI-2421, NPI-2463, NPI-2503, NPI-2504 and NPI-2506 against HL-60 and its multidrug resistant derivative HL-60/MX2. Mitoxantrone, the topoisomerase II targeting agent was included as a control.
(Resazurin is reduced to fluorescent resorufin, in cell work by metabolically active cells.)

Data set [2] concerns MES-SA/Dx5 (Taxol Resistant) human uterine sarcoma. Kind of data set: Drug resistant cell line pair, cytotoxicity (Example 10B). The data set is classed as cell-based. The conditions noted are these: vs MES-SA. From the text: 1) Human Uterine Sarcoma Tumor Cell Line Pair: MES-SA (Taxol Sensitive) and MES-SA/Dx5 (Taxol Resistant).
In data set [3] the test system is Jurkat cells. Kind of data set: cells. Type of data set: cell-based.
Data set [4] deals with HL-60/MX-2 (Mitoxantrone-Resistant). Description: Drug resistant cell line pair, cytotoxicity (Example 10B). The data set is classed as cell-based, human. The conditions noted are these: HL-60 Resistant IC50 relative to HL-60 Sensitive. From the text:
2) Human Acute Promyelocytic Leukemia Cell Line Pair: HL-60 (Mitoxantrone-Sensitive) and HL-60/MX-2 (Mitoxantrone-Resistant)

Data set [5] concerns DU-145 human prostate tumor. Description: DU-145 Human Prostate Tumor Xenograft Model. Type of data set: in vivo, nude mice. The conditions noted are these: taxotere alone. A general note: Xenograft models place foreign cells or tissue in a host animal.
Description: When the tumors reached 5 mm×5 mm (at about 13-17 days) the animals were matched into treatment and control groups.
In this model unless otherwise noted for the individual study, test compounds were administered via the intraperitoneal route on Days 1, 3, 5, 8 and 11 (q3dx5); taxotere was administered intravenously on Days 1, 3 and 5 (q2dx3).
Data set [6] relates to A549 human non small cell lung tumor. Description: A549 Human Lung Tumor Xenograft Model. The data set is classed as in vivo, nude mice. As to the method: (§1) Animals used were (exceptions are indicated for individual studies): female nude mice (nu/nu) between 5 and 6 weeks of age (˜20 g, Harlan); group size was 9-10 mice per group unless otherwise indicated.
(§2) Selected novel compounds were administered as monotherapy via the intraperitoneal (i.p.) route at the doses indicated for the individual study; for the combination studies the selected reference chemotherapy agents were injected 15-30 min prior to the compound.
(§3) Saline dilutions are used to achieve the injection concentrations used for the reference compounds.
Animals were implanted s.c. by trocar with fragments of A549 tumors harvested from s.c. growing tumors in nude mice hosts. When the tumor size reached 5 mm×5 mm (about 10-17 days) the animals were matched into treatment and control groups.

Data set [7] concerns MCF-7 human breast tumor. Kind of data set: MCF-7 Human Breast Tumor Xenograft Model. The note with it: Breast MCF-7 (2 studies); Taxotere Days 1, 3, 5 alone. The data set is classed as in vivo, nude mice. As to the method: as §1, §2, §3
Female nude mice (˜20 g) were implanted s.c. with 21-day release estrogen (0.25 mg) pellets 24 hours prior to the s.c. implantation with MCF-7 tumor fragments (harvested from s.c. tumors in nude mice hosts). The study then proceeded as described for the HT-29 model, using taxotere as the standard chemotherapy agent.
In this model unless otherwise noted for the individual study, the novel compounds were injected via the intraperitoneal route daily on Days 1-5, inclusive (qdx5); taxotere was administered intravenously on Days 1, 3 and 5 (qodx3).
The doses of the compounds were administered on Days 1, 2, 3, 4, and 7; Taxotere was administered on Days 1, 3 and 7.

For data set [8], the system named is Jurkat cells (human T cell leukemia line). Kind of data set: DNA fragmentation (DNA laddering). The data set is classed as cell-based. The source says:
A late stage characteristic of apoptosis is internucleosomal DNA cleavage that results in a distinctive ladder pattern that can be visualized by gel electrophoresis.

In data set [9] the test system is human hepatic P450s.
Description: In the recent his study, (±)-phenylahistin was treated with rat hepatic microsome or human hepatic P450s.
Data set [10] relates to PC-3 prostatic adenocarcinoma cells. Description: Tumor cytotoxicity assay, resazurin fluorescence, 48 h (Example 6). The data set is classed as cell-based, human. The conditions noted are these: Homo sapiens; Table 2; read-out: EC50 (nM) PC-3. As to the method: 10× concentrated serial dilutions of the two compounds were prepared in appropriate culture medium for final concentrations ranging from 2.0×10^−5 M to 2.0×10^−10 M. Ten μl volumes of the 10× serial dilutions were added to the test wells in triplicate and the plates returned to the incubator for 48 hours.
Following 48 hours of drug exposure 10 μl of 0.2 mg/ml resazurin (obtained from Sigma-Aldrich Chemical Co.) in Mg^2+, Ca^2+ free PBS was added to each well and the plates were returned to the incubator for 3-4 hours. […] Resazurin dye without cells was used to determine the background, which was subtracted from the data for all experimental wells. The data were analyzed using Prism software (GraphPad Software).
PC-3, a human prostate adenocarcinoma, was maintained in F12K complete medium (F12K medium supplemented with 10% FBS; 2 mM Glutamine; 1% HEPES; and Pen/Strep at 100 IU/ml and 100 µg/ml, respectively).

For data set [11], the system named is HT-29 human colon cells. The description is as above. The data set is classed as cell-based.
Data set [12] relates to P388 murine leukemia cells. Kind of data set: Cytotoxic effect in P388 cells. The note with it: Mus musculus, P388, read-out: IC50 (nM) P-388; Table 2. Type of data set: cell-based. The source says:
The cytotoxic effects of phenylahistin, dehydrophenylahistin and various derivatives of dehydrophenylahistin were examined in P388 murine leukemia cells, HT-29 human colon cells, and PC-3 prostatic adenocarcinoma cells.

Data set [13] has as its system Trichophyton rubrum. Kind of data set: Antifungal susceptibility testing, broth dilution (MIC/MFC). Type of data set: cell-based. The note with it: in words. An outline of the steps:
(§4)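 Tested against two isolates per species (one for C. glabrata). After MIC, fungicidal concentration determined by plating 0.1 μl from MIC and each higher concentration.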
Background: In broth dilution the organism is exposed to a series of concentrations in liquid medium.

In data set [14] the test system is Aspergillus fumigatus. The data set is described as above. The data set is classed as cell-based. The conditions noted are these: Aspergillus fumigatus, read-out: MIC. The method in brief:
as §4

For data set [15], the system named is Candida albicans. Described as above. Type of data set: cell-based. The conditions noted are these: Candida albicans; C. albicans 90028; read-out: MIC. An outline of the steps:
as §4

Data set [16] relates to Candida glabrata. Described as above. The data set is classed as cell-based. The note with it: Nakaseomyces glabratus; C. glabrata; read-out: MIC. The method in brief: as §4
In data set [17] the test system is Trichophyton mentagrophytes. The description is as above. The data set is classed as cell-based. The conditions noted are these: in words. As for the experimental part:
Specifically, disclosed compounds were evaluated alongside commercially available microtubulin inhibitors as well as recognized antifungal agents. […].
Microorganisms against which these compounds were tested included: Candida albicans, Candida glabrata, Aspergillus fumigatus, Trichophyton rubrum, Trichophyton mentagrophytes, Epidermophyton floccosum. With the exception of Candida glabrata (one isolate), two isolates of each species were tested.
Drug concentrations were 0.03-16 μg/ml for the investigational compounds, 0.015-8 μg/ml for itraconazole and griseofulvin.
The minimum lethal concentration (MLC) was determined by plating […] from the MIC concentration and each concentration above the MIC. […] When a MIC was obtained, a minimum fungicidal concentration (MFC) was determined to assess the fungistatic/fungicidal nature of the compound. […] The compound is scored as fungistatic if the cells are able to resume growth and fungicidal if no regrowth is possible because the compound had killed the organisms.

Setting [18] is: Lung A549 (1 study), Taxotere Days 1, 3, 5 alone.

Read-outs that look alike come from different tables or passages of the source.

For orientation: IC50 means the concentration that gives 50% inhibition. Broadly, the TGI is how far tumour growth fell short of that in controls. One may read the EC50 as the concentration needed to bring the measured effect to its halfway point. One may read the MIC as the smallest concentration in the dilution series that meets the test's criterion for growth inhibition.

Consider `O=C1c2c(O)ccc(O)c2C(=O)c2c(NCCNCCO)ccc(NCCNCCO)c21` [mitoxantrone, Mitoxantrone, reference compound], for which the Fold change in [1] (ratio of EC50 values (HL-60/MX2:HL-60)) is listed as 26. Besides, the “less active against the resistant HL-60/MX2 cells” value in data set [1] (vs HL-60) is recorded as around 26 times. Besides, the “reduced susceptibility of the MES-SA/DX5 cell line” value in [2] is reported as 20 fold. In data set [3] (Homo sapiens, Jurkat, read-out: Cytotoxicity Potency IC50), the half-inhibitory concentration (IC50) was 41 nM. Besides, in data set [3] (human), the “Cytotoxicity Efficacy % Cell Death” value is listed as 99%. The “Ratio to Sensitive” value in data set [4] amounted to 24.1.

On to `CC(=O)O[C@@]12CO[C@@H]1C[C@H](O)[C@@]1(C)C(=O)[C@H](O)C3=C(C)[C@@H](OC(=O)[C@H](O)[C@@H](NC(=O)OC(C)(C)C)c4ccccc4)C[C@@](O)([C@@H](OC(=O)c4ccccc4)[C@H]21)C3(C)C` [Taxotere, reference compound], for which the “TGI vs NCI criterion” value in [5] is reported as “did not reach the NCI established criterion for a positive effect”. In addition, the “Tumor Growth Inhibition (%) Reference Agent” value in data set [6] (setting [18]) worked out at 26%. Besides, the “Tumor Regression (#/total) Reference Agent” value in [6] (setting [18]) is 0/10; in [7], 0/20. In addition, the TGI in data set [6] (taxotere alone) is 26.1%.

Consider “phenylahistin [halimide, reference compound]”, for which the “DNA laddering potency compared with KPU-2” value in [8] is given as “much less potent”.

For (±)-phenylahistin, in data set [9], the “major metabolites P1 and P3, share of the recovered metabolites” value was “more than 60%”; the metabolites detected entry is “at least seven metabolites were detected”.

As to `C=CC(C)(C)c1[nH]cnc1/C=c1\[nH]c(=O)/c(=C/c2ccccc2)[nH]c1=O` [KPU-1, Dehydrophenylahistin], the “DNA laddering potency compared with KPU-2” value in [8] was “much less potent”. In addition, the EC50 in data set [10] stood at 4.7 nM; in [11] (Homo sapiens, HT-29, Table 2, read-out: EC50 (nM) HT-29), 48 nM; in data set [11] (Homo sapiens, HT-29, Table 5, synthetic potent dehydroPLH derivatives, read-out: EC50), 48 nM; in [11] (Table 6, proliferation of HT-29 cells, read-out: EC50) it was 48 nM. Also, the IC50 in data set [12] was 36 ± 12.8 nM. In addition, in [13], the “antifungal potency versus T. rubrum” value is “significantly less potent than the other compounds”. For the same compound, the MIC in data set [14] (A. fumigatus isolate #1) was above 16 µg/mL; in data set [14] (A. fumigatus isolate #2), above 16 µg/mL; in data set [15] it was above 68 µg/mL; in data set [16], above 68 µg/mL. For the same compound, the “antifungal potency versus the sensitive T. mentagrophytes isolate” value in data set [17] was “weaker but more comparable to the others”.
